Measurements from US8524716B2, “Macrocyclic indoles as hepatitis C virus inhibitors” (priority 2007, dated 2013).
Like-named read-outs stand apart in the source and are kept apart here.

Assays:
[1] = from C=CCCNC(=O)Cn1c(-c2ccoc2)c(C2CCCCC2)c2ccc(C(=O)NCCC=C)cc21; rcm bond; Hoveyda-Grubbs 1st generation catalyst; 1,2-dichloroethane; 1.585 mM; 80.0 °C; 15.0 h
[2] = biological target: HCV NS5B (Hepatitis C virus genotype 1b (strain HC-J4), UniProt O92972); assay: biochemical; assay type: biochemical; details: 100 nM enzyme, [3H]GTP incorporation, 2 h at 25° C.; read-out: IC50 (μM) Enzymatic assay
Protocol: The cDNA encoding NS5B amino acid 1-570 (HC-J4, genotype 1b, pCV-J4L6S, genebank accession number AF054247) was subcloned into the Nhe I and Xho I restriction sites of pET-21b. Expression of the subsequent His-tagged C-terminal 21 amino acid deleted NS5B was performed as follows:
The NS5B expression construct was transformed into E. coli BL21(DE3) (Novagen, Madison, Wis.). Five milliliters of LB-medium supplemented with ampicillin (50 μg/mL) was inoculated with one colony. When the pre-culture reached an optical density of 0.6 measured at 600 nm, it was transferred to fresh LB-medium supplemented with ampicillin, at a ratio of 1:200. Cells were grown to an optical density at 600 nm of 0.6, after which the expression cultures were shifted to a growth temperature of 20° C. following induction with isopropyl-1-thio-β-D-galactopyranoside and MgCl2 at a final concentration of 0.4 mM and 10 μM, respectively. After ten hours of induction, cells were harvested by centrifugation and resuspended in 20 mM Tris-HCl, pH 7.5, 300 mM NaCl, 10% glycerol, 0.1% NP40, 4 mM MgCl2, 5 mM DTT supplemented with EDTA-free Complete Protease Inhibitor (Roche, Basel, Switzerland). Cell suspensions were disrupted by sonication and incubated with 10-15 mg/L of DNase I (Roche, Basel, Switzerland) for 30 minutes. Cell debris was removed through ultracentrifugation at 30,000×g for 1 hour and clarified cell lysate was flash frozen and stored at −80° C. prior to purification.
Clarified cell lysate was thawed and subsequently loaded onto a 5 mL pre-packed HisTrap FF column equilibrated with 25 mM HEPES, pH 7.5, 500 mM NaCl, 10% glycerol and 5 mM DTT. Proteins were eluted with 500 mM imidazole at a flow rate of 1 mL/min. Fractions containing the protein of interest were applied onto a pre-packed 26/10 HiPrep Desalting Column equilibrated with 25 mM HEPES, pH 7.5, 150 mM NaCl, 10% glycerol and 5 mM DTT. The buffer-exchanged NS5B peak was then applied onto a 20 mL Poly-U Sepharose column. Protein was eluted with an increasing salt gradient and fractions collected. Protein purity was assessed on Nu-PAGE pre-cast gels (Invitrogen, Carlsbad, Calif.). Purified NS5B samples were concentrated using Centri-Prep concentrators (Millipore, Billerica, Mass., USA) and protein concentrations were determined by Bradford assay (Pierce, Rockford, Ill., USA).
Measurement of HCV NS5B polymerization activity was performed by evaluating the amount of radio labeled GTP incorporated by the enzyme in a newly synthesized RNA using heteropolymeric RNA template/primer. The high-throughput RNA dependent RNA polymerase (RdRp) assay was carried out in 384-well plates using 100 nM enzyme, 300 nM 5′-biotinylated oligo(rG13)/poly(rC) primer-template, 600 nM of GTP, and 0.1 μCi of [^3H]GTP in 25 mM Tris-HCl, pH 7.5, 5 mM MgCl2, 25 mM KCl, 17 mM NaCl and 3 mM of dithiothreitol (DTT). Test compounds were dissolved in DMSO. The test compounds were added to the preformed polymerase-template complex, and incubated at room temperature for 15 min before the addition of nucleoside triphosphates (NTP). The 30 μl reaction was terminated after 2 h at 25° C. upon addition of 30 μl A PVT-SPA beads (Amersham Biosciences RPNQ0009, 5 mg/ml in 0.5 M EDTA).

[3] = tested on: HCV replicons (NS3-NS5B regions of HCV type 1b) in Huh-Luc cells; assay: HCV replicon assay in Huh-7 luc/neo (Huh-Luc) cells, luciferase readout; assay type: cell-based; details: Hepatitis C virus, Huh-7, 72 h, three days incubation, luciferase activity
Excerpt: The compounds of formula (I) were examined for activity in the inhibition of HCV RNA replication in a cellular assay. […] The cellular assay was based on a bicistronic expression construct, as described by Lohmann et al. (1999) Science vol. 285 pp. 110-113 with modifications described by Krieger et al. (2001) Journal of Virology 75: 4614-4624, in a multi-target screening strategy. In essence, the method was as follows.
The assay utilized the stably transfected cell line Huh-7 luc/neo (hereafter referred to as Huh-Luc). This cell line harbors an RNA encoding a bicistronic expression construct comprising the wild type NS3-NS5B regions of HCV type 1b translated from an Internal Ribosome Entry Site (IRES) from encephalomyocarditis virus (EMCV), preceded by a reporter portion (firefly luciferase), and a selectable marker portion (neo^R, neomycine phosphotransferase). The construct is bordered by 5′ and 3′ NTRs (non-translated regions) from HCV type 1b. Continued culture of the replicon cells in the presence of G418 (neo^R) is dependent on the replication of the HCV RNA. The stably transfected replicon cells that express HCV RNA, which replicates autonomously and to high levels, encoding inter alia luciferase, were used for screening the antiviral compounds.
The replicon cells were plated in 384 well plates in the presence of the test and control compounds which were added in various concentrations. Following an incubation of three days, HCV replication was measured by assaying luciferase activity (using standard luciferase assay substrates and reagents and a Perkin Elmer ViewLux™ ultraHTS microplate imager). […] The inhibitory activity of the compound on luciferase activity was monitored on the Huh-Luc cells, enabling a dose-response curve for each test compound. EC50 values were then calculated, which value represents the amount of the compound required to decrease the level of detected luciferase activity by 50%, or more specifically, the ability of the genetically linked HCV replicon RNA to replicate.

HCV NS5B, sequence (O92972 2420-3010 limits assumed): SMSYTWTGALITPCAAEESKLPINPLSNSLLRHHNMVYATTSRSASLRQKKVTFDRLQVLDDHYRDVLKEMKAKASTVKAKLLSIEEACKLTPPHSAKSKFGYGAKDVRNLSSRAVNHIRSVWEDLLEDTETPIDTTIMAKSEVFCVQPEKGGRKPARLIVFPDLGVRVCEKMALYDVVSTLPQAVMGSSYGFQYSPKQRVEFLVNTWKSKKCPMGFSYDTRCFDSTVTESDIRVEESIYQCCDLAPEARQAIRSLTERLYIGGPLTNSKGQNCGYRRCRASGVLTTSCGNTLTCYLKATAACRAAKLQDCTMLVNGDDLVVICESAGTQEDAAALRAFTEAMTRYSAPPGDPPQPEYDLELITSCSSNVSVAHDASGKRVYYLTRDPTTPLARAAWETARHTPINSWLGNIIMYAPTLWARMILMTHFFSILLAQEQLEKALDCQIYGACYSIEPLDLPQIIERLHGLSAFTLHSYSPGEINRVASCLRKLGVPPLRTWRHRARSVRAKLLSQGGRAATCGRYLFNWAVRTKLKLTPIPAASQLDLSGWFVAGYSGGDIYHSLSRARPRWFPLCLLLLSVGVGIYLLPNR

Structure (SMILES) | IC50 [2] [µM] | EC50 [3] [µM] | also measured
CS(=O)(=O)N1CCN(c2ccc([N+](=O)[O-])cc2COc2ccc(-c3c(C4CCCCC4)c4ccc5cc4n3CC(=O)NCCC=CCCNC5=O)cc2)CC1 | – | – | ring closure, isolated yield (rcm bond, 15-membered ring, Hoveyda-Grubbs 1st gen (2 portions), DCE, 80.0 °C): 70%
O=C1Cn2c(-c3ccc(OCc4cc(N5CCCC5=O)ccc4N4CCOCC4)cc3)c(C3CCCCC3)c3ccc(cc32)C(=O)NCCC=CCCN1 | – | – | ring closure, isolated yield (from C=CCCNC(=O)Cn1c(-c2ccc(OCc3cc(N4CCCC4=O)ccc3N3CCOCC3)cc2)c(C2CCCCC2)c2ccc(C(=O)NCCC=C)cc21, rcm bond, 15-membered ring, Hoveyda-Grubbs 1st gen (2 portions), DCE, 80.0 °C): 25%
O=C1Cn2c(-c3ccoc3)c(C3CCCCC3)c3ccc(cc32)C(=O)NCCC=CCCN1 | – | – | ring closure, yield of all isomers [1]: 22%
CS(=O)(=O)N1CCN(c2ccc(N3CCCC3=O)cc2COc2ccc(-c3c(C4CCCCC4)c4ccc5cc4n3CC(=O)NCC/C=C\CCNC5=O)c(F)c2)CC1 [Cpd 15, 17-Cyclohexyl-18-[2-fluoro-4-[2-(4-methanesulfonyl-piperazin-1-yl)-5-(2-oxo-pyrrolidin-1-yl)-benzyloxy]-phenyl]-1,4,11-triaza-tricyclo[11.5.2.0^16,19]icosa-7,13(20),14,16(19),17-pentaene-3,12-dione] | 1.58 | 0.27 | –
COc1ccc(-c2ccc(Cl)cc2)c(-c2ccc3cc(-c4c(C5CCCCC5)c5ccc6cc5n4CC(=O)NCC/C=C\CCNC6=O)ccc3n2)c1 [Cpd 16, 18-[2-(4′-Chloro-4-methoxy-biphenyl-2-yl)-quinolin-6-yl]-17-cyclohexyl-1,4,11-triaza-tricyclo[11.5.2.0^16,19]icosa-7,13(20),14,16(19),17-pentaene-3,12-dione] | 1.44 | 17.6 | –
Cc1nc(C)c(-c2ccc3cc(-c4c(C5CCCCC5)c5ccc6cc5n4CC(=O)NCC/C=C\CCNC6=O)ccc3n2)s1 [Cpd 17, 17-Cyclohexyl-18-[2-(2,4-dimethyl-thiazol-5-yl)-quinolin-6-yl]-1,4,11-triaza-tricyclo[11.5.2.0^16,18]icosa-7,13(20),14,16(19),17-pentaene-3,12-dione] | 2.7 | 5.39 | –
Cc1nc(C)c(-c2ccc3cc(-c4c(C5CCCCC5)c5ccc6cc5n4CC(=O)NCC/C=C\CS(=O)(=O)NC6=O)ccc3n2)s1 [Cpd 18, 17-cyclohexyl-18-[2-(2,4-dimethyl-thiazol-5-yl)-quinolin-6-yl]-10,10-dioxo-10λ^6-thia-1,4,11-triaza-tricyclo[11.5.2.0^16,19]icosa-7,13(20),14,16(19),17-pentaene-3,12-dione] | 0.04 | 12.8 | –
CN1C/C=C\CNC(=O)Cn2c(-c3ccc(OCc4cc(N5CCCC5=O)ccc4N4CCN(S(C)(=O)=O)CC4)cc3F)c(C3CCCCC3)c3ccc(cc32)C(=O)NS1(=O)=O [Cpd 19, 17-cyclohexyl-18-(2-fluoro-4-(2-(4-methanesulfonyl-piperazin-1-yl)-5-(2-oxo-pyrrolidin-1-yl)-benzyloxy)-phenyl)-9-methyl-10,10-dioxo-10λ^6-thia-1,4,9,11-tetraaza-tricyclo[11.5.2.0^16,19]icosa-6,13(20),14,16(19),17-pentaene-3,12-dione] | 0.042 | 2.36 | –
CN1CCCCCNC(=O)Cn2c(-c3ccc(Cl)cc3)c(C3CCCCC3)c3ccc(cc32)C(=O)NS1(=O)=O [Cpd 21, 19-(4-Chloro-phenyl)-18-cyclohexyl-10-methyl-11,11-dioxo-11λ^6-thia-1,4,10,12-tetraaza-tricyclo[12.5.2.017,20]henicosa-14(21),15,17(20),18-tetraene-3,13-dione] | 0.19 | 0.59 | –
CN1C/C=C\CN(C)S(=O)(=O)NC(=O)c2ccc3c(C4CCCCC4)c(-c4ccc(Cl)cc4)n(c3c2)CC1=O [Cpd 23, 18-(4-Chloro-phenyl)-17-cyclohexyl-4,9-dimethyl-10,10-dioxo-10λ^6-thia-1,4,9,11-tetraaza-tricyclo[11.5.2.016,19]icosa-6,13(20),14,16(19),17-pentaene-3,12-dione] | 0.45 | 1.08 | –
CN1CCCCN(C)S(=O)(=O)NC(=O)c2ccc3c(C4CCCCC4)c(-c4ccc(Cl)cc4)n(c3c2)CC1=O [Cpd 24, 18-(4-Chloro-phenyl)-17-cyclohexyl-4,9-dimethyl-10,10-dioxo-10λ^6-thia-1,4,9,11-tetraaza-tricyclo[11.5.2.016,19]icosa-13(20),14,16(19),17-tetraene-3,12-dione] | – | 0.53 | ring closure, isolated yield (amide bond, 15-membered ring): 12%
COc1ccc(-c2c(C3CCCCC3)c3ccc4cc3n2CC(=O)NCCCCN(C)S(=O)(=O)NC4=O)cc1 [Cpd 25, 17-Cyclohexyl-18-(4-methoxy-phenyl)-9-methyl-10,10-dioxo-10λ^6-thia-1,4,9,11-tetraaza-tricyclo[11.5.2.016,19]icosa-13(20),14,16(19),17-tetraene-3,12-dione] | 0.18 | 1.76 | –
COc1ccc(-c2c(C3CCCCC3)c3ccc4cc3n2CC(=O)NCCCCCN(C)S(=O)(=O)NC4=O)cc1 [Cpd 26, 18-Cyclohexyl-19-(4-methoxy-phenyl)-10-methyl-11,11-dioxo-11λ^6-thia-1,4,10,12-tetraaza-tricyclo[12.5.2.017,20]henicosa-14(21),15,17(20),18-tetraene-3,13-dione] | – | 0.35 | ring closure, isolated yield (amide bond, 16-membered ring, CDI, CH3CN, 2 steps): 31%
COc1ccc(-c2c(C3CCCCC3)c3ccc4cc3n2CC(=O)NCCN(C)CCNS(=O)(=O)NC4=O)cc1 [Cpd 27, 18-Cyclohexyl-19-(4-methoxy-phenyl)-7-methyl-11,11-dioxo-11λ^6-thia-1,4,7,10,12-pentaaza-tricyclo[12.5.2.017,20]henicosa-14(21),15,17(20),18-tetraene-3,13-dione] | 0.44 | 3.47 | –
CN1CC=CCCNC(=O)Cn2c(-c3ccoc3)c(C3CCCCC3)c3ccc(cc32)C(=O)NS1(=O)=O [Cpd 29, 18-Cyclohexyl-19-furan-3-yl-10-methyl-11,11-dioxo-11λ^6-thia-1,4,10,12-tetraaza-tricyclo[12.5.2.017,20]henicosa-7,14(21),15,17(20),18-pentaene-3,13-dione] | 0.051 | 0.65 | –
